Assay results published in patent publication EP1709956A1, “Hair treatment composition comprising betains” (Henkel Kommanditgesellschaft auf Aktien, priority 2001, dated 2002).

Test system: humane Haarfollikel
Test: in vitro model of isolated human scalp hair follicles (Philpott): hair shaft elongation in organ culture
Type: cell-based
Conditions: 9 days in culture
Excerpt: Auf diese Publikation wird ausdrücklich Bezug genommen. Gemäß dieser Veröffentlichung wurde wie folgt verfahren: a. Isolation humaner Kopfhauthaarfollikel Es wird okzipitale, humane Vollhaut isoliert. b. Aufreinigung der isolierten humanen Kopfhautfollikel Die herausgezupften Haarfollikel werden in ein frisches Isolationsmedium überführt, darin gesammelt und anschließend mehrfach unter sterilen Bedingungen mit frischem Medium gewaschen. Je drei Haarfollikel werden randomisiert in ein Well einer 24-Well Platte mit 500µl kompletten Mediums (verwendet wird Williams E Medium, supplementiert mit 2 mM L-Glutamin, 10 µg/ml Hydrokortison, 10 µg/ml Insulin, 10 µg/ml Penizillin und 10 µg/ml Streptomycin). Vor der Zugabe der zu testenden Substanzen wurden die Haarfollikel für 30 Minuten im Inkubator präinkubiert. c. Testung der Substanzen Es werden Carnitin, Carnitintartrat sowie Minoxidil als Vergleichssubstanz mit bekannter Wirkung geprüft. Die Prüfkonzentration für Carnitin und Carnitiontartrat beträgt jeweils 50 µmol/1. Die Haarfollikel werden für 9 Tage in Kultur gehalten. Das Medium inklusive der Testsubstanzen wird täglich gewechselt. Die Länge der jeweiligen Haarschäfte wird am 9. Tag mit Hilfe eines Meßokulares am Dissektionsmikroskop gemessen und dokumentiert. Die Prüfung von Minoxidil ist eine Positivkontrolle, weil Minoxidil in der Literatur bereits als wachstumsstimulierend für humane Haarfollikel beschrieben wird. […] Hierzu sind folgende Änderungen gegenüber der Prüfung des Carnitines und des Carnitintartrates notwendig: Testkonzentration des Minoxidil 10^-5 mol/l in 1 % Ethanol, Ersatz des Streptomycines durch 10µg/ml Ciprofloxacin. Zur statistischen Auswertung der Ergebnisse wird die Länge der Haarschäfte in % der Gesamtdurchschnittslänge aller Haarfollikel am Tage 0 berechnet. Alle Haarfollikel einer Gruppe werden gepoolt und der Mittelwert sowie die Standardabweichung statistisch nach üblichen Methoden berechnet. Signifikante Unterschiede werden mit dem Student T-Test berechnet. d.

[1] = 50 µmol/l, medium changed daily, shaft length measured on day 9, in % of mean length of all follicles on day 0

Compound	Längenwachstum des Haarschaftes in % (positive control, 10^-5 mol/l in 1 % Ethanol, streptomycin replaced by 10 µg/ml Ciprofloxacin, measured on day 9) [%]	Längenwachstum des Haarschaftes in % [1] [%]
Nc1cc(N2CCCCC2)nc(N)[n+]1[O-] [Minoxidil, reference compound]	34	
C[N+](C)(C)CC(O)CC(=O)[O-] (stereo not drawn) [Carnitin]		67
C[N+](C)(C)CC(O)CC(=O)[O-] (stereo not drawn) [Carnitintartrat]		87
